{"source": "patent US7884133B2", "about": "“Pharmaceutical compositions containing (+) cannabidioil and derivatives thereof and some such novel derivatives” (priority 2003, dated 2011)", "key": {"[1]": {"test_system": "CB1−/− receptor knockout mice", "test": "Intestinal motility in CB1−/− receptor knockout mice", "assay_type": "in vivo", "conditions": "20 mg/kg i.p., defecation rate recorded for 3 hours", "description": "Female CB1−/− knockout mice were injected i.p. with (+)-7-OH-CBD-DMH, (+)-CBD-DMH or Δ^9-THC (20 mg/kg). Intestinal motility (defecation rate) was recorded for a period of 3 hours.\n(§1) Female Sabra mice (2-3 months of age) were purchased from Harlan, Israel. Breeding pairs of CB1−/− receptor knockout mice were provided by Prof. A. Zimmer, University Clinic Bonn, Germany.\n(§2) Defecation was measured as the number of fecal pellets voided in the open field. In some experiments (as indicated below), fecal pellets and body temperature were assessed for a prolonged period (3 hr)."}, "[2]": {"test_system": "CB1−/− receptor knockout mice", "test": "Central effects in CB1−/− receptor knockout mice", "assay_type": "in vivo", "conditions": "not shown", "description": "as §1\n(§3) Mice were injected with antagonist 90 minutes before testing and/or with agonist 60 minutes before testing in a series of four assays which reflect central cannabinoid activity [Martin (1991) id. ibid.; modified by Fride, E. and R. Mechoulam (1993) id. ibid.]. This “tetrad” consists of, consecutively, ambulation and rearing in an open field (8 minutes), immobility on an elevated ring of 5 cm diameter (4 minutes), rectal temperature (Yellow"}, "[3]": {"test_system": "female Sabra mice", "test": "Intestinal motility (defecation, number of fecal pellets)", "assay_type": "in vivo", "conditions": "20 mg/kg i.p.", "description": "as §2"}, "[4]": {"target": "CB1 receptor (Rattus norvegicus, UniProt P20272)", "sequence (P20272 whole entry)": "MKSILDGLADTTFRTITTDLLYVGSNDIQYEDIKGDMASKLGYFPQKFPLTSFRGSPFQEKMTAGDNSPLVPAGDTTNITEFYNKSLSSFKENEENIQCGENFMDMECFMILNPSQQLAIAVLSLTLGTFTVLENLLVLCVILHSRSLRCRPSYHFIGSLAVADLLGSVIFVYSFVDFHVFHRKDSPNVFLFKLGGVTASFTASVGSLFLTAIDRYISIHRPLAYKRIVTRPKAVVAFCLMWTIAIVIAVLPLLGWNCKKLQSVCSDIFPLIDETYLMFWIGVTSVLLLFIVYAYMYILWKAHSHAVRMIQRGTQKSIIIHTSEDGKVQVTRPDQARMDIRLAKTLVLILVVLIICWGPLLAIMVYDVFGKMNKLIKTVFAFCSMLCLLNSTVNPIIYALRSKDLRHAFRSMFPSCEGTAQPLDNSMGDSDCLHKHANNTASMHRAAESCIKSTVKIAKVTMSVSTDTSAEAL", "conditions": "cited from earlier work"}, "[5]": {"test_system": "female Sabra mice", "test": "Hypothermia (rectal temperature)", "assay_type": "in vivo", "conditions": "20 mg/kg i.p., * = P<0.05 vs vehicle", "description": "as §3, §2"}, "[6]": {"test_system": "female Sabra mice", "test": "Tetrad overall (central cannabinoid activity)", "assay_type": "in vivo", "conditions": "20 mg/kg i.p., tested 60 minutes later", "description": "Central activity of the compounds of the invention was assessed in the “tetrad”, which is a series of assays commonly used to measure central cannabimimmetic effects [Martin, B. R. et al. (1991) Pharmacol. Biochem. Behav. 40(3): 471-8; Fride, E. and C. Sanudo-Pena (2002) id. ibid.]. Three parameters for peripheral activity were used. Since gastrointestinal transit is regulated locally in the periphery rather than by centrally located CB1 receptors [Izzo (2000) id. ibid.; Landi (2002) id. ibid.], intestinal motility was one of the parameters used, and peripheral cannabinoid effects was measured as rates of defecation (see Example 29).\nas §3"}, "[7]": {"test_system": "female Sabra mice", "test": "Tetrad: ambulation (horizontal movements) in an open field", "assay_type": "in vivo", "conditions": "20 mg/kg i.p., open field 8 min, 30 or 60 min after injection; normalized; * = P<0.05 vs vehicle", "description": "as §3"}, "[8]": {"test_system": "formalin-induced peripheral pain in mice", "test": "Formalin-induced peripheral pain (second phase)", "assay_type": "in vivo", "conditions": "formalin 4% in hind footpad, 45 minutes after drug; paw licks over 60 minutes", "description": "Formalin (4%) was injected in the left hind footpad and the number of licks of the injected foot were recorded for each 5 minutes interval for the 60 minutes starting immediately after formalin application.\n(§4) Pain perception on a hot plate, is considered to be mediated by a central mechanism whereas the second, late phase of the response to an implantar injection of formalin reflects inflammatory pain mechanisms [Tjolsen, A. and Hole (1997) id. ibid.].\n(§5) Thus, central pain perception was assessed by the analgesic response on a hot plate (55° C., Columbus Instruments, OH, USA). Peripheral pain was measured by the response to implantar injection of formalin (4%) 45 minutes after injection of the drug."}, "[9]": {"test_system": "female Sabra mice", "test": "Intestinal motility after antagonist pre-treatment (SR141716A, SR144528, capsazepine)", "assay_type": "in vivo", "conditions": "for reversal of inhibition of defecation by CB1 antagonist SR141716A / reversal of inhibition of defecation by CB2 antagonist SR144528: agonist 20 mg/kg; for reversal of inhibition of defecation by CB1 antagonist SR141716A: SR141716A 1 mg/kg i.p. 30 minutes before agonist; for reversal of inhibition of defecation by CB2 antagonist SR144528: SR144528 1 or 3 mg/kg i.p. 30 minutes before agonist", "description": "(SR1, 1 mg/kg). SR1 was injected (i.p.) 30 minutes before the agonist. 60 minutes after (+)CBD-DMH the number of fecal pellets was recorded.\n(SR2, 1 mg/kg). SR2 was injected (i.p.) 30 minutes before the agonist. 60 minutes after (+)-CBD-DMH the number of fecal pellets was recorded.\nas §3, §2"}, "[10]": {"target": "CB2 receptor (Homo sapiens, UniProt P34972)", "sequence (P34972 whole entry)": "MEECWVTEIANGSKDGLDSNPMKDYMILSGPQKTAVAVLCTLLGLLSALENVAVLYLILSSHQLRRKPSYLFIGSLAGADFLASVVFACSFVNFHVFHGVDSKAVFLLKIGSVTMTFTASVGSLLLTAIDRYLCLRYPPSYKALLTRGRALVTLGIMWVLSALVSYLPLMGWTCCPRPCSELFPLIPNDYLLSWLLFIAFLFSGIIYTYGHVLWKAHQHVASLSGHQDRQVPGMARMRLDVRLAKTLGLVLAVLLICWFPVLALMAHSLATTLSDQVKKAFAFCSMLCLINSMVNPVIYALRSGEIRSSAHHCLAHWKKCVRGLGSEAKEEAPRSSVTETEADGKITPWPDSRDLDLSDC", "conditions": "cited from earlier work"}, "[11]": {"test_system": "female Sabra mice", "test": "Tetrad: catalepsy (immobility) on an elevated ring", "assay_type": "in vivo", "conditions": "20 mg/kg i.p., elevated ring 4 min; normalized; * = P<0.05 vs vehicle", "description": "as §3"}, "[12]": {"test_system": "female Sabra mice", "test": "Tetrad: rearing (vertical movements) in an open field", "assay_type": "in vivo", "conditions": "20 mg/kg i.p.", "description": "as §3"}, "[13]": {"test_system": "female Sabra mice", "test": "Hot plate analgesia (centrally mediated pain)", "assay_type": "in vivo", "description": "as §4, §5"}, "[14]": {"test_system": "arachidonic acid-induced ear inflammation in the mouse", "test": "Arachidonic acid induced inflammation of the external ear", "assay_type": "in vivo", "conditions": "for potency compared to indomethacin in ear inflammation, in words: (+)-CBD-DMH 40 or 10 mg/kg vs indomethacin 20 mg/kg", "description": "Ear inflammation was measured by assessing ear tissue swelling after topical application of arachidonic acid, as described previously [Hanus (1999) id. ibid.]. Briefly, at various times after i.p. drug injections, arachidonic acid was applied to the inner surface of one ear (4.5 mg dissolved in […] ethanol). The opposite ear served as control (5 ethanol). Ear thickness was determined (in 0.01-mm units) by using a dial thickness gauge (Mitutoyo, Japan) every 15 minutes for 90 minutes, starting immediately after arachidonic acid application."}}, "note": "“Also recorded” adds a separate entry of the source."}
{"smiles": "C=C(C)C1CCC(C)=CC1c1c(O)cc(C(C)(C)CCCCCC)cc1O", "note": "(single isomer, unassigned; (+)) [+CBD−DMH, (+)-CBD-DMH]", "values": [{"measurement": "effect on intestinal motility in CB1−/− knockout mice", "setting": "[1]", "value": "absence of inhibition of intestinal motility; also recorded: None of the drugs assessed ((+)-CBD-DMH, (+)-7-OH-CBD-DMH and Δ^9-THC had any effect; also recorded: no effects"}, {"measurement": "central effects in CB1−/− receptor knockout mice", "setting": "[2]", "value": "None of the drugs assessed ((+)-CBD-DMH, (+)-7-OH-CBD-DMH and Δ^9-THC had any effect"}, {"measurement": "inhibition of defecation / intestinal motility, in words", "setting": "[3]; 60 minutes after injection", "value": "completely blocked"}, {"measurement": "Inhibition of Intesitinal Motility (% MPE)", "setting": "[3]; defecation in open field 8 min, normalized, * = P<0.05 vs vehicle", "value": "100* % MPE"}, {"measurement": "Ki", "setting": "[4]; first value of CB1/CB2 cell, data from Bisogno et al., 2001, read-out: CB1 Receptor Binding (Ki)", "value": 17, "unit": "nM"}, {"measurement": "Kd", "setting": "[4]; previously reported, Bisogno et al. 2001, read-out: affinity for the CB1 receptor (Kd)", "value": 17.4, "unit": "nM"}, {"measurement": "Hypothermia (Δ-Body Temp.)", "setting": "[5]", "value": "−0.3", "unit": "°C"}, {"measurement": "central effects (tetrad), in words", "setting": "[6]", "value": "absence of central effects or small effects; also recorded: Lack of central effects"}, {"measurement": "Horizontal Movements (% MPE)", "setting": "[7]", "value": 82, "unit": "% MPE"}, {"measurement": "second (inflammatory) phase of formalin-induced pain, in words", "setting": "[8]", "value": "completely inhibited the second phase; also recorded: almost completely inhibited; also recorded: almost completely prevented the second phase of pain"}, {"measurement": "reversal of inhibition of defecation by CB1 antagonist SR141716A", "setting": "[9]; listed as (+) CBD-DMH", "value": "almost fully reversed"}, {"measurement": "reversal of inhibition of defecation by CB1 antagonist SR141716A", "setting": "[9]; listed as (+)-CBD-DMH", "value": "effectively antagonized; also recorded: partial reversal"}, {"measurement": "reversal of inhibition of defecation by CB2 antagonist SR144528", "setting": "[9]; listed as (+) CBD-DMH", "value": "not at all"}, {"measurement": "reversal of inhibition of defecation by CB2 antagonist SR144528", "setting": "[9]; listed as (+)-CBD-DMH", "value": "not at all; also recorded: did not prevent; also recorded: no reversal"}, {"measurement": "effect of VR1 antagonist capsazepine on inhibition of defecation", "setting": "[9]; data not shown", "value": "did not affect"}, {"measurement": "Kd", "setting": "[10]; previously reported, Bisogno et al. 2001, read-out: affinity for the CB2 receptor (Kd)", "value": 211, "unit": "nM"}, {"measurement": "Ki", "setting": "[10]; second value of CB1/CB2 cell, data from Bisogno et al., 2001, read-out: CB2 Receptor Binding (Ki)", "value": 210, "unit": "nM"}, {"measurement": "Catalepsy (Freezing of Movement) (% MPE)", "setting": "[11]", "value": 16, "unit": "% MPE"}, {"measurement": "effect on rearing in an open-field, in words", "setting": "[12]", "value": "modest effect"}, {"measurement": "Vertical Movements (% MPE)", "setting": "[12]; open field 8 min, normalized, * = P<0.05 vs vehicle", "value": 61, "unit": "% MPE"}, {"measurement": "centrally mediated pain on hot plate, in words", "setting": "[13]; 20 mg/kg", "value": "not active; also recorded: not affected"}, {"measurement": "Analgesia (Hot Plate) (% MPE)", "setting": "[13]; 20 mg/kg i.p., hot plate 55° C., max 45 sec, normalized, * = P<0.05 vs vehicle", "value": 10, "unit": "% MPE"}, {"measurement": "potency compared to indomethacin in ear inflammation, in words", "setting": "[14]; listed as (+) CBD-DMH", "value": "as effective as indomethacin"}, {"measurement": "potency compared to indomethacin in ear inflammation, in words", "setting": "[14]; listed as (+)-CBD-DMH", "value": "equal potency as indomethacin; also recorded: as potent as indomethacin"}, {"measurement": "potency compared to indomethacin in ear inflammation, in words", "setting": "[14]; listed as (+)CBD-DMH", "value": "Equal potencies"}, {"measurement": "inhibition of arachidonic acid-induced ear inflammation, in words", "setting": "[14]; i.p., 10 to 40 mg/kg, ear thickness every 15 minutes for 90 minutes", "value": "almost completely inhibited"}]}
